Source: patent US11202789B2, “Method of treating glycogen storage disease” (Viking Therapeutics, Inc., priority 2016, dated 2021)

What was measured:
Type in all cases: in vivo
[1] = system: male diet-induced obese (DIO) C57Bl/6 mice; test: 2, 5 and 10 week study in mouse model of diet-induced obesity
Experimental: Objectives: The objectives of this study were to evaluate the effects of 2, 5 and 10 weeks of Compound 2 treatment at doses of 10 and 30 mg/kg/day on total plasma cholesterol levels, blood glucose levels, and hepatic steatosis in a mouse model of diet-induced obesity.
Methods: Male C57Bl/6 mice (4 weeks old) were fed a high-fat diet (60% fat by kcal) for 88 days to induce obesity, hyperlipidemia, and mild hyperglycemia prior to initiation of the study. For the study, 3 groups of mice (n=24-28) were dosed daily by gavage with 10 or 30 mg/kg of Compound 2 or vehicle (0.1% carboxymethylcellulose) and maintained on the same high-fat diet. During treatment, body weight, total plasma cholesterol levels, and blood glucose levels of the animals were measured weekly. Subsets of animals (n=6-12; 30 mg/kg/day) were sacrificed prior to treatment and after 2, 5 and 10 weeks of treatment for analysis of liver weights, liver triglyceride levels and liver histology.

G6PC−/− mice = test: G6PC−/− mouse model of GSD Ia (Example 12)
Experimental: (§1) Compound 2 was tested in a G6PC−/−mouse model of GSD Ia. Daily injection of 0.1 to 0.2 mL 10% dextrose subcutaneously was initiated within 3 days of age for G6PC−/−mice. All G6PC−/−mice continued to receive daily dextrose injections during this time. Blood was collected at time of euthanasia, when tissues were collected. Two groups of 4 G6PC−/−mice (1 group treated with Compound 2, 1 group treated with vehicle) were analyzed to identify statistically significant differences between Compound 2-treated and vehicle-treated controls. We also treated 2 groups of 3 normal (wild type) mice, one with Compound 2 and one with vehicle.
(§2) Initially the GSD Ia mice were treated with Compound 2 from 5 to 10 days of age. Body mass, liver mass, liver glycogen concentration, liver triglycerides, fasting serum glucose, fasting serum triglycerides, and GSD-related cell signaling pathways were examined. Similarly, groups of GSD Ia mice were treated with vehicle for 5 days to serve as mock-treated controls for all assays. Groups of 3-4 mice were evaluated. GSD Ia mice were treated for >7 days to assess survival and longer-term effects of Compound 2 as described above (GSD Ia mice rarely survive >12 days of life without a therapeutic intervention). Metabolomic analysis of hepatic extracts were performed as described (Sinha, Farah et al. (2013), Hepatology 59(4):1366-80). Acylcarnitine and amino acid profiling were employed to detect any changes related to increased lipolysis and fatty acid beta-oxidation as described by Sinha et al. (Sinha, Farah et al. (2013), Hepatology 59(4):1366-80). […] Mean liver triglyceride content was reduced by more than 60% in Compound 2-treated animals relative to vehicle-treated control animals, while average liver weight was reduced by more than 30% vs. controls. Importantly, average liver weight as a percent of total body weight also declined by approximately 20% in treated vs. control animals. Further, treatment with Compound 2 led to statistically significant reductions in key metabolic markers of GSD Ia.

normal (wild type) mice = test: Wild type mice treated alongside the G6PC−/− model (Example 12); conditions: wild type (wt) mice
Experimental: as §1, §2

[2] = 10 and 30 mg/kg/day, following 2, 5 and 10 weeks, vs vehicle

For `Cc1cc(OCP2(=O)OCCC(c3cccc(Cl)c3)O2)cc(C)c1Cc1ccc(O)c(C(C)C)c1` (stereo not shown) [Compound 2], the “macrovesicular and microvesicular steatosis (liver histology)” value ([1]; 30 mg/kg/day, after 2, 5 and 10 weeks, vs vehicle) was “visually reduced”, the “blood glucose levels lower” value ([1]; 10 and 30 mg/kg/day by gavage, most time points, vs vehicle) was “up to 25%” and the “total plasma cholesterol levels decreased” value ([1]; 10 and 30 mg/kg/day by gavage, week 1 through end of study, vs vehicle) was “more than 50%”. For the same compound, the liver weights lower [1, 2] was roughly 50%, the “liver-to-body weight ratios lower” value [1, 2] was roughly 40% and the body weight gain ([1]; 10 and 30 mg/kg/day, up to 10 weeks) was “tended to reduce”. The “total liver triglyceride content (mg/liver) lower” value ([1]; 10 and 30 mg/kg/day, weeks 2, 5 and 10, vs vehicle) was “up to 60%”, the “liver triglyceride concentrations (mg/g liver)” value ([1]; 10 or 30 mg/kg/day, any time point, vs vehicle) was “No significant changes” and the “average liver weight reduced” value (G6PC−/− mice; Compound 2-treated vs controls) was “more than 30%”. For the same compound, the “mean liver triglyceride content reduced” value (G6PC−/− mice; Compound 2-treated vs vehicle-treated control animals) was “more than 60%”, the body mass (G6PC−/− mice; G6PC−/− mice, vs vehicle-treated controls (FIG. 15)) was “reduced” and the liver mass (G6PC−/− mice; G6PC−/− mice, vs vehicle-treated controls (FIG. 16)) was “reduced”. The “liver mass as a percentage of body mass” value (G6PC−/− mice; G6PC−/− mice, vs vehicle-treated controls (FIG. 17)) was “reduced”, the liver glycogen levels (G6PC−/− mice; G6PC−/− mice, vs vehicle-treated controls (FIG. 18)) was “somewhat enhanced” and the serum triglycerides (G6PC−/− mice; G6PC−/− mice, vs vehicle-treated controls (FIG. 19)) was “somewhat enhanced”. For the same compound, the liver triglyceride concentrations (G6PC−/− mice; G6PC−/− mice, vs vehicle-treated controls (FIG. 20)) was “reduced”, the total liver triglycerides (G6PC−/− mice; G6PC−/− mice, vs vehicle-treated controls (FIG. 21)) was “reduced” and the “average liver weight as a percent of total body weight declined” value (G6PC−/− mice; treated vs control animals) was “approximately 20%”. For the same compound, the body mass (normal (wild type) mice; vs vehicle-treated controls (FIG. 15)) was “reduced”, the liver mass (normal (wild type) mice; vs vehicle-treated controls (FIG. 16)) was “reduced” and the “liver mass as a percentage of body mass” value (normal (wild type) mice; vs vehicle-treated controls (FIG. 17)) was “reduced”. The liver glycogen levels (normal (wild type) mice; vs vehicle-treated controls (FIG. 18)) was “significantly reduced”, the serum triglycerides (normal (wild type) mice; vs vehicle-treated controls (FIG. 19)) was “somewhat enhanced” and the liver triglyceride concentrations (normal (wild type) mice; vs vehicle-treated controls (FIG. 20)) was “reduced”. For the same compound, the total liver triglycerides (normal (wild type) mice; vs vehicle-treated controls (FIG. 21)) was “reduced”.
